Among the data in ChEMBL document CHEMBL1128782, “Nucleosides and nucleotides. 142. an alternative synthesis of and its antiviral activity” (Bioorg Med Chem Lett, 1995) are EC50 and Ki values, retold here.

The structures appear in SMILES notation. pKi: −log10 of the molar value. Converted amounts (≈) assume the structure as drawn.

In one experiment the test system is Human betaherpesvirus 5. The experiment can be described thus: Effective dose required for plaque reduction in human cytomegalovirus (HCMV) was determined. Format: functional, organism-based.
Experiment [1] concerns Influenza B virus. The experiment can be described thus: Effective dose required to reduce virus induced cytopathogenicity by Influenza B(Fu 207) was determined. It is filed as functional, organism-based.
For experiment [2], the system named is Vesicular stomatitis virus. Kind of experiment: Effective dose required for plaque reduction in vesicular stomatitis virus (VSV) was determined. It is filed as functional, organism-based.
For experiment [3], the system named is Influenza B virus. The experiment can be described thus: Effective dose required to reduce virus induced cytopathogenicity by Influenza B(singapore) was determined. Format: functional, organism-based. On the technique in general: Protection from cytopathic effect is a common read-out in antiviral testing.
Experiment [4] in a line: Evaluated for time-dependent and irreversible inhibitor of bovine S-adenosyl-L-homocysteine. Also noted: species or system Bos taurus.
In a further experiment the test system is Influenza A virus. The experiment can be described thus: Effective dose required to reduce virus induced cytopathogenicity by Influenza A(H1N1,Fu 88) was determined. Format: functional, organism-based.
Experiment [5] deals with Influenza B virus. The experiment can be described thus: Effective dose required to reduce virus induced cytopathogenicity by Influenza B (Fu 207) was determined. Format: functional, organism-based.

In general, EC50 refers to the concentration needed to bring the measured effect to its halfway point. A lower EC50 goes with higher potency in that assay. On to `N#C[C@H]1OC(n2cnc3c(N)ncnc32)[C@H](O)[C@@H]1O` (some centres not stated), for which the EC50 in the experiment with Human betaherpesvirus 5 was found to be 1.4 µg/mL (≈ 5.34 µM); in the experiment on Influenza B virus [1], 10 µg/mL (≈ 38.1 µM); in experiment [2], 1.2 µg/mL (≈ 4.58 µM).

In general, pKi refers to the negative decadic logarithm of the Ki, by convention in mol/L. High values mean a small Ki, low ones a large Ki. `C#C[C@H]1OC(n2cnc3c(N)ncnc32)[C@H](O)[C@@H]1O` (some centres not stated): the EC50 came out at 8.2 µg/mL (≈ 31.4 µM) in the experiment with Human betaherpesvirus 5; 1.8 µg/mL (≈ 6.89 µM) with Influenza B virus [1]; 0.9 µg/mL (≈ 3.45 µM) in the experiment with Influenza B virus [3]; 0.14 µg/mL (≈ 0.536 µM) in experiment [2]; 0.38 µg/mL (≈ 1.45 µM) in the experiment on Influenza A virus. The compound also showed a pKi in experiment [4] of 6.76.

For `Nc1ncnc2c1ncn2C1O[C@H](C=C(Br)Br)[C@@H](O)[C@H]1O` (some centres not stated), the EC50 in the experiment on Human betaherpesvirus 5 was above 10 µg/mL; in the experiment with Influenza B virus [5], 32 µg/mL (≈ 76 µM); in experiment [2], above 10 µg/mL.

With `Nc1ncnc2c1ncn2[C@@H]1C=C(CO)[C@@H](O)[C@H]1O` [NEOPLANOCIN A], the EC50 with Human betaherpesvirus 5 is 0.2 µg/mL (≈ 0.76 µM); with Influenza B virus [1], above 20 µg/mL; in the experiment on Influenza B virus [3], above 20 µg/mL; in experiment [2], 0.38 µg/mL (≈ 1.44 µM); with Influenza A virus, above 20 µg/mL.

Turning to `NC(=O)c1ncn([C@@H]2O[C@H](CO)[C@@H](O)[C@H]2O)n1` [RIBAVIRIN], the 50% effective concentration (EC50) with Human betaherpesvirus 5 was above 10 µg/mL; in the experiment on Influenza B virus [1], 36.9 µg/mL (≈ 151 µM); with Influenza B virus [3], 6.7 µg/mL (≈ 27.4 µM); in experiment [2], above 10 µg/mL; in the experiment on Influenza A virus, 19.6 µg/mL (≈ 80.3 µM).
